Literature values, collected in patent publication US8927002B2, “Stent with a coating or a basic body containing a lithium salt and use of lithium salts for prevention of restenosis” (Biotronik VI Patent AG, priority 2008, dated 2015).

What was measured:
[1] = system: interleukins (IL-15; IL-8)
[2] = system: various prostate cancer cell lines; details: cell culture; by reducing gene expression in the S-phase of the cell cycle

[Cl-].[Li+] [lithium chloride]
secretion of certain interleukins (IL-15; IL-8) [1]: increased secretion
proliferation of various prostate cancer cell lines [2]: significantly suppresses the proliferation
